In PMC4060991, “The Human Orphan Nuclear Receptor Tailless (TLX, NR2E1) Is Druggable” (PLoS ONE, 2014):

Assays:
ERβ LBD = ERβ LBD (Homo sapiens, UniProt Q92731); test: DSF on purified ERβ LBD; details: compound 500 µM; unliganded Tm ∼51°C
Protocol: Protein stability was assessed with DSF in absence or presence of test compounds in a LightCycler 480 II qRT-PCR Detection System (Roche) in 384-well format. Sypro-Orange dye (Life Technologies) was used to monitor fluorescence, with filters for fluorescence excitation at 465 nm and for fluorescence emission at 610 nm. […] Tested sample mixtures were heated from 25°C to 96°C at a rate of 0.05°C/sec with 11 acquisitions per °C. Each compound was tested in duplicates. The melting temperature (Tm) for each sample was deduced by the ThermoQ Analytical software (HMRI) from the first derivative of the corresponding denaturation curve generated by the LightCycler 480 software. The same protocol was applied to investigate the stability of purified ERβ and LXRβ LBDs in presence or absence of the compounds. The optimal final concentrations for these experiments were 0.02 mg/mL for ERβ LBD and 0.20 mg/mL for LXRβ LBD. All DSF-based analyses were performed using freshly purified protein.

TLX LBD = TLX LBD (Homo sapiens, UniProt Q9Y466); test: Differential scanning fluorimetry (DSF) on purified TLX LBD;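 further: thermal unfolding followed by Sypro-Orange fluorescence (excitation 465 nm, emission 610 nm) in 384-well plates, Tm taken from the first derivative of the denaturation curve, duplicate samples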; format: binding; parameters: cDNA fragments encoding human TLX LBD (a.a. 187–385) were cloned; His6 followed by TEV protease cleavage site (N); made in house; host or cells: E. coli BL21 (DE3) star; details: compound 500 µM
Sequence of TLX LBD (Q9Y466 187-385): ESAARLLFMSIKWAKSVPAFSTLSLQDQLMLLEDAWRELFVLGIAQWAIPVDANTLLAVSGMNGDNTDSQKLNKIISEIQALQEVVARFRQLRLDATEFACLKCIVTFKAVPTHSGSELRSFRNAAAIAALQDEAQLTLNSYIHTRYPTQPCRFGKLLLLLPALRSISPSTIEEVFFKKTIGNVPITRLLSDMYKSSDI
Protocol: Protein stability was assessed with DSF in absence or presence of test compounds in a LightCycler 480 II qRT-PCR Detection System (Roche) in 384-well format. Sypro-Orange dye (Life Technologies) was used to monitor fluorescence, with filters for fluorescence excitation at 465 nm and for fluorescence emission at 610 nm. […] Each compound was tested in duplicates. The melting temperature (Tm) for each sample was deduced by the ThermoQ Analytical software (HMRI) from the first derivative of the corresponding denaturation curve generated by the LightCycler 480 software. […] All DSF-based analyses were performed using freshly purified protein.

Sequence of ERβ LBD (Q92731 261-530): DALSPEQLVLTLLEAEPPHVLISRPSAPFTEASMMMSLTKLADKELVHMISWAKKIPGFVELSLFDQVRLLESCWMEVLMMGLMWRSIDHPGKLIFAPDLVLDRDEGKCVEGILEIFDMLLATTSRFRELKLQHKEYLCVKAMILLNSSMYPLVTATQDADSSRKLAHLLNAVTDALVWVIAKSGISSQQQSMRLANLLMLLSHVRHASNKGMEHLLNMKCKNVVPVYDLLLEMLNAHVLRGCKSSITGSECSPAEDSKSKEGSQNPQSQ

Compound	melting temperature shift of ERβ LBD (ERβ LBD)	hit in DSF screen (able to bind TLX LBD, Tm shift 0.9°C or more), Table S1 (TLX LBD)
C[C@]12CC[C@@H]3c4ccc(O)cc4CC[C@H]3[C@@H]1CC[C@@H]2O [E2, estradiol]	shifted upward	
CC(=O)[O][Pb]([O]C(C)=O)([c]1ccccc1)[c]1ccccc1 [[acetyloxy-di(phenyl)plumbyl] acetate]		Hits from DSF
CC(=O)[O][Hg][c]1c(C)c(C)c(C)c(C)c1C [acetyloxy-(2,3,4,5,6-pentamethylphenyl)mercury]		Hits from DSF
O=C([O][Hg][CH2]C1COC([CH2][Hg][O]C(=O)c2ccccc2)CO1)c1ccccc1 (centres unmarked) [benzoyloxy-[[5-(benzoyloxymercuriomethyl)-1,4-dioxan-2-yl]methyl]mercury]		Hits from DSF
CN(C)c1ccc(C=CC(=O)[O-])cc1.CN(C)c1ccc(C=CC(=O)[O-])cc1.[Cu+2] [copper 3-(4-dimethylaminophenyl)prop-2-enoate]		Hits from DSF
Acetyloxymercury; Phenanthrene		Hits from DSF
Daptomycin [reference compound]		Hits from DSF
Kauroic acid		Hits from DSF
